Source: patent US20090227619A1, “Harmine derivatives, intermediates used in their preparations, preparation processes and use therefo” (priority 2003, published 2009)
Like-named read-outs stand apart in the source and are kept apart here.

Key:
HepG2 = assay: In vitro cytotoxicity, IC50 by MTT method, HepG2; format: cell-based, human; conditions: Homo sapiens
Procedure, shortened: (§1)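 Cells in RPMI1640 with 10% FBS at 37° C, 5% CO2 were seeded at 10^5/ml and exposed to a compound concentration gradient for 48 h, at least three replicates, solvent controls.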

PLA-801 = assay: In vitro cytotoxicity, IC50 by MTT method, PLA-801; format: cell-based
Procedure, shortened: as §1

Bel-7402 = assay: In vitro cytotoxicity, IC50 by MTT method, Bel-7402; format: cell-based; conditions: Homo sapiens, Bel-7402
Procedure, shortened: as §1

BGC-823 = assay: In vitro cytotoxicity, IC50 by MTT method, BGC-823; format: cell-based; conditions: Homo sapiens, BGC-823
Procedure, shortened: as §1

Hela = assay: In vitro cytotoxicity, IC50 by MTT method, Hela; format: cell-based; conditions: Homo sapiens
Procedure, shortened: as §1

Lovo = assay: In vitro cytotoxicity, IC50 by MTT method, Lovo; format: cell-based; conditions: Homo sapiens
Procedure, shortened: as §1

NIH3T3 = assay: In vitro cytotoxicity, IC50 by MTT method, NIH3T3; format: cell-based; conditions: Mus musculus
Procedure, shortened: as §1

Kunming mice = conditions: for Death rate: single i.p.
Procedure: (§2) Five grades of dosages for each sample according to the results of the preliminary test, each dosage being 0.8 larger than the previous one
(§3) During the experiment, each sample was added a small amount of Tween-80 to facilitate dissolution after the sample was weighed, and then 0.5% CMC-Na solution was gradually added to achieve the desired concentration. The experimental volume was 0.5 ml/20 g mouse.
(§4) Single injection via intraperitoneal (i.p.) to different groups mice.
(§5) Kunming mice were divided into different groups randomly according to their sex. The medicament was intraperitoneally administered to each group of mice according to the dosage setting. After the administration of the medicaments, mice were observed continuously for the first 2 h for any gross behavioral changes and deaths. Dead animals were dissected and examined for any possible organ damage. […] Conditions of animals died within two week were recorded. After two weeks, all survived animals were sacrificed and checked macroscopically for possible damage to the heart, liver, kidneys and so on. Viscera that had substantive pathological changes were pathologically examined.

Lewis lung cancer = conditions: Lewis lung cancer; for Body weight of the animals, end, First time / Body weight of the animals, end, Second time: ip × 10qd; for Inhibition rate (%) Lewis cancer: comparison table 43, in vivo;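 for all read-outs here: mice implanted subcutaneously in the axilla with Lewis lung tumor cells, treated starting the following day, killed roughly three weeks after implantation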
Source text: There was one group of 8 to 10 mice C57BL/6 and Kunming mice for the anti-tumor tests and two groups of mice for negative control.
(3) Sources of tumors: Lewis lung cancer cells and S180 sarcoma in mice, which were sub-cultured and maintained by Pharmacological Center of Shanghai Pharmaceutical Industrial Research Institute.
All samples were weighed and added a small amount of Tween-80 to facilitate dissolution during the experiment, and then 0.5% CMC-Na solution was gradually added to achieve the desired concentration. The volume for experiment was 0.5 ml/20 g mouse.
The medicaments were intraperitoneally administered once a day continuously for 10 days.
For the negative control group, a vehicle of the same volume was intraperitoneally administered once a day continuously for 10 days. For the positive control group, CTX was administered in the dosage of 30 mg/kg once a day continuously for 7 days.
In vivo anti-tumor subcutaneous vaccination in the axilla was employed. Wildly grown tumor source was taken under sterile conditions to form a cell suspension of about 1×10^7 ml by homogenization method. For a corresponding mouse host, the suspension was injected in the axilla in an amount of 0.2 ml/mouse. The next day, the medicaments were administered according to the design of the tests. About three weeks later, all the groups of animals were executed. The tumors were taken from the animals and weighed. The inhibition rate of tumors was calculated according to the following formula:
T: average tumor weight of treated group; C: average tumor weight of negative control group.

S180 sarcoma = conditions: S180 sarcoma; for Body weight of the animals, beginning, First time / Body weight of the animals, end, First time / Inhibition rate, First time / Weight of the tumor X ± SD, First time / Body weight of the animals, beginning, Second time / Body weight of the animals, end, Second time / Inhibition rate, Second time: ip × 10qd; for Inhibition rate (%) S180 sarcomata: comparison table 43, in vivo
in vivo = conditions: both, mouse, ip
Procedure: as §2, §3, §4, §5

[1] = 50% male 50% female mice, 240 mg/kg
[2] = 50% male 50% female mice, 300 mg/kg
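Throughout, for Death rate: acute toxicity in Kunming mice grouped by sex, one intraperitoneal dose at five graded levels in Tween-80 plus 0.5% CMC-Na, deaths monitored over two weeks.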
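Throughout, for LD50: acute toxicity in Kunming mice grouped by sex, one intraperitoneal dose at five graded levels in Tween-80 plus 0.5% CMC-Na, deaths monitored over two weeks.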
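Throughout, for MTD: acute toxicity in Kunming mice grouped by sex, one intraperitoneal dose at five graded levels in Tween-80 plus 0.5% CMC-Na, deaths monitored over two weeks.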
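Throughout, for Sex: acute toxicity in Kunming mice grouped by sex, one intraperitoneal dose at five graded levels in Tween-80 plus 0.5% CMC-Na, deaths monitored over two weeks.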

SMILES: O=C(O)c1cc2c3ccccc3n(CCCc3ccccc3)c2cn1 [Compound 48, 9-phenylpropyl-β-carboline-3-carboxylic acid]
- IC50 (HepG2; HepG2 cell strain, read-out: IC50 HepG2): 30 µM
- IC50 (PLA-801; PLA-801 cell strain, read-out: IC50 PLA-801): 260 µM
- IC50 (Bel-7402; Bel7402 cell strain, read-out: IC50 Bel7402): 50 µM
- IC50 (BGC-823; BGC823 cell strain, read-out: IC50 BGC823): 30 µM
- IC50 (Hela; Hela cell strain, read-out: IC50 Hela): 100 µM
- IC50 (Lovo; Lovo cell strain, read-out: IC50 Lovo): 10 µM
- IC50 (NIH3T3; NIH3T3 cell strain, read-out: IC50 NIH3T3): 30 µM
- Death rate (Kunming mice; [1]): 60
- Death rate (Kunming mice; [2]): 100
- Death rate (Kunming mice; female mice, 240 mg/kg): 60
- Death rate (Kunming mice; female mice, 300 mg/kg): 100
- Death rate (Kunming mice; male mice, 240 mg/kg): 60
- Death rate (Kunming mice; male mice, 300 mg/kg): 100
- LD50 (Kunming mice; mouse, in vivo, ip): 193 to 249 mg/kg
- Body weight of the animals, end, First time (Lewis lung cancer; Dosage 50 (mg/ml)): 25.3 g
- Body weight of the animals, end, Second time (Lewis lung cancer; Dosage 50 (mg/ml)): 25.0 g
- Body weight of the animals, beginning, First time (Lewis lung cancer; Dosage 50, ip × 10qd): 20.1 g
- Inhibition rate, First time (Lewis lung cancer; Dosage 50, ip × 10qd): 25.10%
- Weight of the tumor X ± SD, First time (Lewis lung cancer; Dosage 50, ip × 10qd): 1.82 ± 0.10 g
- Body weight of the animals, beginning, Second time (Lewis lung cancer; Dosage 50, ip × 10qd): 19.0 g
- Inhibition rate, Second time (Lewis lung cancer; Dosage 50, ip × 10qd): 28.67%
- Weight of the tumor X ± SD, Second time (Lewis lung cancer; Dosage 50, ip × 10qd): 2.09 ± 0.19 g
- Body weight of the animals, end, First time (Lewis lung cancer; Dosage 100 (mg/ml)): 24.8 g
- Body weight of the animals, end, Second time (Lewis lung cancer; Dosage 100 (mg/ml)): 25.2 g
- Body weight of the animals, beginning, First time (Lewis lung cancer; Dosage 100, ip × 10qd): 19.8 g
- Inhibition rate, First time (Lewis lung cancer; Dosage 100, ip × 10qd): 34.98%
- Weight of the tumor X ± SD, First time (Lewis lung cancer; Dosage 100, ip × 10qd): 1.58 ± 0.08 g
- Body weight of the animals, beginning, Second time (Lewis lung cancer; Dosage 100, ip × 10qd): 19.3 g
- Inhibition rate, Second time (Lewis lung cancer; Dosage 100, ip × 10qd): 39.59%
- Weight of the tumor X ± SD, Second time (Lewis lung cancer; Dosage 100, ip × 10qd): 1.77 ± 0.15 g
- Inhibition rate (%) Lewis cancer (Lewis lung cancer): 39.59%
- Body weight of the animals, beginning, First time (S180 sarcoma; Dosage 50 (mg/ml)): 19.4 g
- Body weight of the animals, end, First time (S180 sarcoma; Dosage 50 (mg/ml)): 24.8 g
- Inhibition rate, First time (S180 sarcoma; Dosage 50 (mg/ml)): 19.48%
- Weight of the tumor X ± SD, First time (S180 sarcoma; Dosage 50 (mg/ml)): 2.15 ± 0.39 g
- Body weight of the animals, beginning, Second time (S180 sarcoma; Dosage 50 (mg/ml)): 18.6 g
- Body weight of the animals, end, Second time (S180 sarcoma; Dosage 50 (mg/ml)): 25.8 g
- Inhibition rate, Second time (S180 sarcoma; Dosage 50 (mg/ml)): 21.85%
- Weight of the tumor X ± SD, Second time (S180 sarcoma; Dosage 50, ip × 10qd): 2.11 ± 0.25 g
- Body weight of the animals, beginning, First time (S180 sarcoma; Dosage 100 (mg/ml)): 19.4 g
- Body weight of the animals, end, First time (S180 sarcoma; Dosage 100 (mg/ml)): 24.8 g
- Inhibition rate, First time (S180 sarcoma; Dosage 100 (mg/ml)): 31.09%
- Weight of the tumor X ± SD, First time (S180 sarcoma; Dosage 100 (mg/ml)): 1.84 ± 0.11 g
- Body weight of the animals, beginning, Second time (S180 sarcoma; Dosage 100 (mg/ml)): 18.5 g
- Body weight of the animals, end, Second time (S180 sarcoma; Dosage 100 (mg/ml)): 26.0 g
- Inhibition rate, Second time (S180 sarcoma; Dosage 100 (mg/ml)): 32.22%
- Weight of the tumor X ± SD, Second time (S180 sarcoma; Dosage 100, ip × 10qd): 1.83 ± 0.16 g
- Inhibition rate (%) S180 sarcomata (S180 sarcoma): 32.22%
- LD50 at 2 weeks (in vivo): 219 mg/kg

SMILES: COC(=O)c1cc2c([nH]c3ccccc32)c(-c2ccc(O)cc2)n1 [Compound 16, methyl 1-(4-hydroxyphenyl)-β-carboline-3-carboxylate]
- IC50 (HepG2; HepG2, MTT, read-out: IC50): > 5000 µM
- IC50 (PLA-801; PLA-801, MTT, read-out: IC50): 1020 µM
- IC50 (Bel-7402; BeI7402, MTT, read-out: IC50): 1080 µM
- IC50 (BGC-823; BGC823, MTT, read-out: IC50): 970 µM
- IC50 (Hela; Hela, MTT, read-out: IC50): 150 µM
- IC50 (Lovo; Lovo, MTT, read-out: IC50): 620 µM
- IC50 (NIH3T3; NIH3T3, MTT, read-out: IC50): 2180 µM
- Death rate (Kunming mice; [1]): 0
- Death rate (Kunming mice; [2]): 30
- Sex (Kunming mice; both, Kunming, mouse, in vivo, ip, 2 weeks): 240
- Death rate (Kunming mice; female mice, 240 mg/kg): 0
- Death rate (Kunming mice; female mice, 300 mg/kg): 40
- Death rate (Kunming mice; male mice, 240 mg/kg): 0
- Death rate (Kunming mice; male mice, 300 mg/kg): 20
- Inhibition rate (%) Lewis cancer (Lewis lung cancer): 37.86%
- Inhibition rate (%) S180 sarcomata (S180 sarcoma): 32.96%
- MTD at 2 weeks (in vivo; Kunming): 240 mg/kg
